These results are taken from patent US9283277B2, “Methods and compositions for the treatment of obesity” (Children's Medical Center Corporation, priority 2008, dated 2016).

Holding throughout (type): in vivo
Experiment [1] relates to ob/ob mice. Description: PBA pretreatment and leptin administration in ob/ob mice. Particulars: for initial body weight: vehicle or PBA pretreated. Here is the method:
Nine-week old lean wt and ob/ob mice were orally treated with either PBA (1 g/kg/day) or vehicle (VEH) for 26 days and PERK (Thr980) phosphorylation is examined in the hypothalamus extracts with direct immunoblotting. (B) Ten week-old wt lean and ob/ob mice were intraperitoneally injected with leptin (0.1 mg/kg) after six-hour starvation. Hypothalami were removed 30 minutes after the injections, and pStat3^Tyr705 and total Stat3 levels were examined. (C) Nine-week old lean wt and ob/ob mice were orally treated with PBA (1 g/kg/day) for 10 days. Following the pretreatment period, leptin-deficient ob/ob mice were either administered with VEH or with different doses of leptin through the intraperitoneal route. The effect of VEH or PBA administration on (C) bodyweight (g), (D) percent decrease in bodyweight and (E) 24-hour food intake (n=3 for VEH and n=4 PBA-treated group). Effect of 5 mg/kg/day leptin administration on (F) bodyweight, (G) percent decrease in bodyweight and (H) 24-hour food intake in VEH- or PBA-treated ob/ob mice (n=3 for VEH and n=4 PBA-treated group). Analysis of the same parameters (body weight, percent decrease in bodyweight and 24-hour food intake) in (I, J, K) 1 mg/kg/day and (L, M, N) 0.1 mg/kg/day leptin-treated mice (n=3 for VEH and n=4 PBA-treated group). Data presented as means±SEM (*p<0.05, **p<0.01, ***p<0.001).
To test whether reduction of ER stress will increase leptin sensitivity of the ob/ob mice, we orally administered PBA or vehicle for 10 days as a pretreatment. Following this period, daily leptin injections (IP) were given at doses ranging from 0.01 mg/kg/day to 5 mg/kg/day. […]

For experiment [2], the system named is db/db mice. Kind of experiment: PBA and leptin co-administration in db/db mice. Conditions: for body weight / food consumption / food intake: PBA 1 g/kg/day oral and/or leptin 1 mg/kg IP, 16 days. The protocol:
Six-week old db/db mice were orally treated with either PBA (1 g/kg/day) or VEH for four days. Following the pretreatment period, leptin receptor-deficient db/db mice were either administered with VEH or leptin (1 mg/kg) through intraperitoneal route for 16 days. (a) Bodyweight (g), (b) percent increase in bodyweight and (c) 24-hour food intake, (d) Blood glucose (mg/dl) levels of the groups. (n=5 in each group). Error bars are ±S.E.M., P values are determined by Student's t-test. (*p<0.05, **p<0.01, ***p<0.001).
We investigated whether the effect created by PBA and leptin combinatory treatment is solely mediated through the LepRb and not due to a non-specific effect. First, we pretreated db/db mice with PBA or vehicle for four days and subsequently initiated the leptin (1 mg/kg) treatment.

Experiment [3] relates to C57BL/6 wt-lean mice. Description: TUDCA and leptin co-treatment in C57BL/6 wt-lean mice. Particulars: leptin 1 mg/kg/day, TUDCA 150 mg/kg/day, 30 days. Here is the method:
Following an initial acclimation period, eight week-old wt lean mice were treated with vehicle (VEH), Leptin (1 mg/kg/day) (L), TUDCA (150 mg/kg/day) (TUD) or leptin and TUDCA together for a period of 30 days. (a) Bodyweight (g), (b) % decrease in bodyweight, (c) Daily food intake (g) of the wt mice treated with VEH, LEP, TUD and TUD+LEP during the experimental period (n=4 in each group). Error bars are ±S.E.M., P values are determined by Student's t-test (*p<0.05, **p<0.01, ***p<0.001).
If the postulate that reduction of ER stress in the hypothalamus increases leptin sensitivity is true, chemical chaperones other than PBA should also create the same effect and sensitize the obese mice to leptin. TUDCA is a hydrophilic bile acid, which has a completely different structure than PBA, but has chemical chaperone activity in common^25. First, we investigated whether TUDCA can reduce ER stress in the hypothalamus of the ob/ob mice. For this purpose we treated ob/ob mice either with vehicle or TUDCA (150 mg/kg/day) for a period of 21 days and analyzed the hypothalamic PERK phosphorylation. […] To address this question we first pretreated the ob/ob mice with TUDCA (150 mg/kg/day) for 5 days and subsequently initiated leptin (1 mg/kg) treatment. […] Body weight of the ob/ob mice decreased further with leptin and TUDCA co-treatment and reached to 34.39±1.30 g from 50.55±1.14 g (Lep vs. TUD+Lep, p<0.001). […] Furthermore, to investigate the metabolic homeostasis in more detail, we placed the mice in metabolic cages. […] Heat generation was the same between the groups (FIG. 5j). Next, we analyzed the whole body fat composition by DEXA scan. […] Finally, analysis of lean mass has shown that none of the treatments lead to a significant change in this parameter ([…]). We additionally investigated the effect of TUDCA and leptin co-treatment on C57BL/6 wt-lean mice.

The mark [4] stands for this setting: oral PBA 1 g/kg/day alone vs vehicle.
The mark [5] stands for this setting: leptin 1 mg/kg/day IP, vehicle or PBA (1 g/kg/day) pretreated.
The mark [6] stands for this setting: leptin 5 mg/kg/day IP, 16 days, vehicle or PBA (1 g/kg/day) pretreated.

With `O=C(O)CCCc1ccccc1` [PBA, 4-phenyl butyric acid], in experiment [1] (PBA + 0.1 mg/kg/day leptin gives weight loss equivalent to 1 mg/kg/day leptin alone), the leptin sensitization entry is on record as “ten-fold”. For the same compound, in experiment [1] (setting [4]), the body weight result is “did not affect” and the food consumption result is recorded as “did not affect”. Further, in experiment [2], the body weight result is “significantly gained weight” and the “food consumption / food intake” value was “no difference”. Further, in experiment [2] (PBA 1 g/kg/day oral vs vehicle), the blood glucose levels entry is listed as “reduced to a significantly lower level”.

Consider `C[C@H](CCC(=O)NCCS(=O)(=O)O)[C@H]1CC[C@H]2[C@@H]3[C@@H](O)C[C@@H]4C[C@H](O)CC[C@]4(C)[C@H]3CC[C@]12C` [TUDCA, tauroursodeoxycholic acid], for which, in experiment [3], the body weight entry was “did not observe any significant changes” and the food intake result is “did not observe any significant changes”.

Regarding “leptin: adipocyte-derived hormone that suppresses appetite”, the initial body weight in experiment [1] (before leptin 1 mg/kg/day) worked out at 57.10 ± 0.58 g; in experiment [1] (before leptin 5 mg/kg/day) it was 56 ± 1.16 g. For the same compound, the “effect on body weight” value in experiment [1] (leptin 0.1 mg/kg/day IP alone (vehicle pretreated)) is “did not significantly reduce”. Moreover, the “body weight after treatment” value is 46.61 ± 0.52 g in experiment [1] (setting [5]) and 41.13 ± 2.35 g in experiment [1] (setting [6]). In addition, the decrease in bodyweight in experiment [1] (setting [5]) amounted to 17.73%. In addition, the food intake entry in experiment [1] (leptin 5 mg/kg/day IP after 10 days vehicle or PBA (1 g/kg/day) pretreatment) is reported as “significantly inhibited”; in experiment [3] it was “did not observe any significant changes”. Moreover, the “decrease in bodyweight from the initial weight” value in experiment [1] (setting [6]) was determined as 27.33±2.65%. For the same compound, the body weight entry is listed as “did not decrease” in experiment [2] and “did not observe any significant changes” in experiment [3]. In addition, in experiment [2], the “food consumption / food intake” value is recorded as “did not decrease”.
